In patent US20140023611A1 (priority 2010, published 2014):

What was measured:
[1] = biological target: T1, rat NaP2b (SLC34A2) (Rattus norvegicus, UniProt Q9JJ09); assay: NaP2b-mediated Pi transport (33P uptake) in transfected HEK293 cells, rat NaP2b; type: cell-based; conditions: Structure (V) examples, Table 2; rat NaP2b, HEK293; read-out: pIC50 Range (converted)
T1 construct: host or cells: HEK293
T1 sequence (Q9JJ09 1-695): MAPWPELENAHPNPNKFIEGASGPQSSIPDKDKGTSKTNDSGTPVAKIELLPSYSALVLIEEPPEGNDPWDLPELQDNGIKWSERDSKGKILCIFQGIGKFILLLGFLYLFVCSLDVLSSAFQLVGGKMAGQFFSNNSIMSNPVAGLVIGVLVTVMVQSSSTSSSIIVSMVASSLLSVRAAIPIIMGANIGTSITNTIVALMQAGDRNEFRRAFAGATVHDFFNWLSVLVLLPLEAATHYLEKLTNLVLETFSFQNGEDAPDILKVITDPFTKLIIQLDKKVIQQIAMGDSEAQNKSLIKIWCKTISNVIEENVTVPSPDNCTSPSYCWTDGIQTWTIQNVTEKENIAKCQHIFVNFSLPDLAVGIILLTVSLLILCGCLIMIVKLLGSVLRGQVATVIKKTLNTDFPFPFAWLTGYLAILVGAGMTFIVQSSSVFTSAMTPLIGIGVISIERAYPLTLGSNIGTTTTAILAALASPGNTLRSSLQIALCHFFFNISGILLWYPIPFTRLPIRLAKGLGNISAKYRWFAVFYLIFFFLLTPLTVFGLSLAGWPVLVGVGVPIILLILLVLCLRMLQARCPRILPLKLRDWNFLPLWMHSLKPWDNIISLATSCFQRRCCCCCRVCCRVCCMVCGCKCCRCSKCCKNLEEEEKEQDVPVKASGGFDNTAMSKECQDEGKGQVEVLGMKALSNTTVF
Procedure: HEK293 cells were obtained from the American Type Culture collection and propagated per their instructions. Expression clones for rat and human NaP2b (SLC34A2) were obtained from Open Biosystems (Catalog numbers MRN1768-9510282, and MHS1010-99823026, respectively). The sequence of the human protein was mutated to insert a threonine after residue 37, and to introduce a N39D mutation.
(§1) The rate of phosphate (Pi) uptake into HEK293 cells was measured using a modification of the method described by Mohrmann et al. (Mohrmann, I., Mohrmann, M., Biber, J., and Murer, H. (1986) Am. J. Phys. 250(3 Pt 1):G323-30.) Transfected HEK293 cells were treated with a pharmacological agent to minimize endogenous PiT-mediated phosphate transport activity, such that the only remaining sodium-dependent phosphate transport activity is that which was bestowed by introduction of the NaP2b genes.
(§2) Cells were seeded into 96-well plates at 25,000 cells/well and cultured overnight. Lipofectamine 2000 (Invitrogen) was used to introduce the NaP2b cDNA, and the cells were allowed to approach confluence during a second overnight incubation. […] Cells were then overlayed with either choline uptake buffer or sodium uptake buffer (14 mM Tris, 137 mM sodium chloride, 5.4 mM KCl, 2.8 mM CaCl2, 1.2 mM MgSO4, 100 uM KH2PO4, PiT-silencing agent, 1 mg/mL Bovine Serum Albumin, pH 7.4) containing 6-9 uCi/mL ^33P orthophosphoric acid (Perkin Elmer) and test compound. Each compound was tested at twelve concentrations ranging from 0.1 nM to 30 uM. Assays were run in duplicate.
After incubation for 3-30 minutes at room temperature, assay mixtures were removed, and the cells were washed twice with ice cold stop solution (137 mM sodium chloride, 14 mM Tris, pH 7.4). Cells were lysed by addition of 20 μL 0.1% Tween 80 followed by 100 μL scintillation fluid, and counted using a TopCount (Perkin Elmer).
pIC50 (the negative log of the IC50) values of the test compounds were calculated using GraphPad Prism.
HEK293 cells were obtained from the American Type Culture collection and propagated per their instructions. Expression clones for rat and mouse NaP2b (SLC34A2) cDNAs were obtained from Open Biosystems (Catalog numbers MRN1768-9510282 and MMM1013-98478398 respectively).
as §1, with “phosphate” for “phosphate (Pi)”
as §2, with “agent, 0.1% wt/v bovine serum albumin,” for “agent, 1 mg/mL Bovine Serum Albumin,”, “Each compounds” for “Each compound”
After incubation for 3-30 minutes at room temperature, assay mixtures were removed, and the cells were washed twice with ice cold stop solution (137 mM sodium chloride, 14 mM Tris, pH 7.4).

[2] = Stability of compounds in simulated gastric and intestinal fluid; type: in vitro ADME; conditions: Structure (V) examples, Table 3, 3 hr
Procedure: (§3) Test compounds were incubated at 1-20 μM in simulated gastric fluid (SGF; standard USP solution with 3 mg/mL pepsin) or simulated intestinal fluid (SIF; standard USP solution with 3 mg/mL pancreatin) for 3 hr or 6 hr. HPLC-UV or HPLC-MS were used to determine test compound levels using peak area %. Results (Table 5) were reported as the percentage of test compound remaining after incubation in a given condition relative to test compound present at t=0 in the same condition.
as §3, with “3” for “3 hr or 6”, “3)” for “5)”

[3] = system: Uptake of Phosphorus from the Intestine; assay: In vivo bolus phosphorus challenge; design: species or system rat; conditions: Sprague-Dawley rats on low-phosphorus diet; oral Drug Dose 30, 15 min before phosphate bolus; serum 30 min post bolus
Procedure: By pretreating animals with a low phosphorus diet followed by the subsequent dosing of a phosphorus bolus, serum phosphorus levels were monitored after 30 minutes as a surrogate for intestinal phosphorus absorption. […] The in vivo bolus phosphorus challenge model used here mimics this model in rats.
Male, 7-week-old Sprague-Dawley rats (Charles-River laboratories international, Hollister, Calif.) were allowed to acclimatize for a minimum of 3 days before switching to a synthetic low-phosphorus diet (TD.85010, Harlan Teklad, Madison, Wis.) which contains 0.1% phosphorus and 0.6% calcium. At day 5, testing compounds or vehicle alone (as indicated) were orally administered at the indicated dose in a volume of 5 ml/kg, followed by a bolus gavage of monobasic sodium phosphate (1 mmol in 1 ml) 15 min after compound dosing. Serum was collected via retroorbital bleeding 30 min post phosphate bolus and phosphate levels were determined utilizing an ACE ALERA blood chemistry analyzer (Alfa Wassermann Diagnostic Technologies, West Caldwell, N.J.).
The extent of inhibition by test compounds on the elevation of serum phosphate levels in response to the bolus of phosphorus is shown in Table 12 (data are expressed as % Inhibition, with 6-10 animals per data point). The differences between groups were evaluated by one-way analysis of variance with Dunnett's post hoc tests.

[4] = biological target: T1, rat NaP2b (SLC34A2); assay: Inhibition of NaP2b-mediated Pi (33P) uptake in transfected HEK293 cells, rat NaP2b; type: cell-based; conditions: 33P Pi uptake, 0.1 mM phosphate, value given as pIC50 range
Method in brief: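 The cells transiently expressed NaP2b after Lipofectamine transfection. Each compound was run in duplicate over twelve concentrations, 0.1 nM–30 uM.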

[5] = Determination of compound Cmax and AUC after oral gavage (plasma LC-MS/MS); type: in vivo, Sprague-Dawley rats; conditions: Sprague-Dawley, Structure (I) examples, Table 15, rat, actual oral dose 3-15 mg/kg, plasma 0.5-4 h
Method in brief: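 Plasma exposure measured by LC-MS/MS after acetonitrile precipitation with internal standard, quantified against a standard curve made in plasma. Compound given orally by gavage to Sprague-Dawley rats at nominal 2.5 or 10 mg/kg, with K2EDTA plasma sampled at 0.5, 1, 2 and 4 h.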

[6] = Stability of compounds in simulated gastric fluid (SGF); type: in vitro ADME; conditions: simulated gastric fluid (3 mg/mL pepsin), incubation time 6 hr, relative to t=0
Method in brief: (§4)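 Compounds at […] were incubated 3 or 6 hr in USP simulated gastric fluid with 3 mg/mL pepsin or simulated intestinal fluid with 3 mg/mL pancreatin. Remaining compound was quantified by HPLC-UV or HPLC-MS peak area % and reported as percent of the t=0 level in the same medium.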

[7] = Fecal recovery of orally administered compounds; type: in vivo, Sprague-Dawley rats; conditions: Structure (I) examples, Table 16; rat, oral gavage, feces collected until 48 hr after dosing
From the text: (§5) The animals were kept in metabolic cages and feces were collected from the time of dosing until 48 hr after dosing. Upon collection, feces were dried by lyophilization and ground to a visually homogenous powder. Duplicate samples of ground feces from each individual animal were weighed out and extracted using organic solvent. […] Extraction conditions were not optimized for individual compounds, and thus may represent a minimal level of recovery.
as §5, with “collection, feces was dried by” for “collection, feces were dried by”
as §5, with “collection, feces was dried by” for “collection, feces were dried by”
The animals were kept in metabolic cages and feces were collected from the time of dosing until 48 hr after dosing. Upon collection, feces was dried by lyophilization and ground to a visually homogenous powder. Duplicate samples of ground feces from each individual animal were weighed out and extracted using organic solvent.

[8] = Stability of compounds in simulated intestinal fluid (SIF); type: in vitro ADME; conditions: simulated intestinal fluid (3 mg/mL pancreatin), incubation time 6 hr, relative to t=0
Method in brief: as §4

[9] = system: Uptake of Phosphorus from the Intestine; assay: In vivo co-dosing in chow (urine P out / P consumed); conditions: Rattus norvegicus, feed or water; rats, compound in chow; mean drug dose 101 mg/kg/day; read-out: Mean % inhibition Urine Pout/P consumed
From the text: Male, 7-week-old Sprague-Dawley rats (Charles-River laboratories international, Hollister, Calif.) were allowed to acclimate for a minimum of 3 days. The experiment was initiated by switching animals to a synthetic diet (0.6% phosphorus and 0.6% calcium, Harlan Teklad TD.84122) for four days. After this time, the animals were placed into metabolic cages for daily monitoring of food and water consumption, as well as urine and fecal collections. Test compounds were incorporated into the powdered diet listed above containing 3% chocolate flavoring (w/w, BioServ #7345) at 1.3 mg test compound per gram of diet to achieve an average daily nominal dose of 100 mg/kg/day. The actual dose received by each animal was later determined by measuring prepared diet consumption and body weight. Urine samples were collected in three daily periods from 24-48, 48-72, and 72-96 hours of drug dosing. Averaging these three 24 h periods allows for the more representative measurements of urination, fecal excretion, food consumption and water uptake for each animal. Phosphorus levels in the urine were determined by anion exchange chromatography using a Dionex ICS-3000 ion chromatography system. Urine samples were diluted 1:500 or 1:1000 and injected onto an IonPac AS18 analytical column (2×250 mm) using a potassium hydroxide eluent. Elution of urine phosphate ions was monitored via conductivity detector and reported as ppm relative to a standard ion solution containing phosphate. Daily urinary P output relative to the P consumed in the prepared diet for each animal was calculated. The percentage inhibition of phosphorus absorption was estimated by determining the reduction of this ratio compared to the control group (animals with no drug in chow). The differences between the means of control and treated groups were evaluated by t tests. In all experiments, one group was always included that had Renvela powder blended into their chow at 0.9% targeting a dose of 750 mg/kg.

[10] = system: NaPi2b; assay: Competition with phosphate: Pi uptake assay repeated at 2.1 vs 0.1 mM phosphate; type: cell-based; conditions: potency at 2.1 vs 0.1 mM phosphate
From the text: For example, a phosphate uptake assay can be performed and the IC50 values for a compound at different phosphate concentrations can be determined (e.g., “Enzyme kinetics”, I. Segel, 1975, John-Wiley & Sons, p. 123). IC50 values for non-competitive inhibitors will remain the same or similar with respect to the phosphate concentration, whereas IC50 values for competitive inhibitors will increase (i.e lose potency) as phosphate concentration increases.
To ascertain if an inhibitor was competitive for binding with phosphate, the procedure was repeated, but raising the concentration of the substrate in the assay mixture from 0.1 to 2.1 mM phosphate.

## O=C(O)CNC(=O)CCSCc1cccc(C(=O)Nc2ccc(N3CCCCC3)cc2C(=O)N/N=C/c2ccc(Cl)c(C(F)(F)F)c2)c1 [Ex. 50, (E)-2-(3-(3-(2-(2-(4-chloro-3-(trifluoromethyl)benzylidene)hydrazinecarbonyl)-4-(piperidin-1-yl)phenylcarbamoyl)benzylthio)propanamido)acetic acid]
[1]
  IC50: 100 to 794 nM
[2]; simulated gastric fluid
  % remaining, SGF: 7%
[2]; simulated intestinal fluid
  % remaining, SIF: 90%

## O=C(O)CCSCc1cccc(C(=O)Nc2ccc(N3CCCCC3)cc2-c2cc(C(=O)NCc3cc(C(F)(F)F)cc(C(F)(F)F)c3)ccn2)c1 [Example 1.32]
[3]
  % Inhibition of Serum P elevation: 20-30%
[4]
  IC50: 1000 to 7940 nM

## CN(CCN1CCOCC1)C(=O)c1cccc(C(=O)Nc2ccc(N3CCCCC3)cc2-c2cc(C(=O)N[C@H]3CCCc4ccccc43)ccn2)c1.Cl [Example 37, (S)—N1-Methyl-N1-(2-morpholinoethyl)-N3-(4-(piperidin-1-yl)-2-(4-((1,2,3,4-tetrahydronaphthalen-1-yl)carbamoyl)pyridin-2-yl)phenyl)isophthalamide]
[5]
  AUC: < 30 ng·h/mL
  Cmax: < 10 ng/mL
[6]
  % remaining, SGF: >80%
[7]
  % recovered in feces: <20%
[8]
  % remaining, SIF: >80%
[9]
  inhibition in vivo at 101 mg/kg/day: ≤ 10%
[10]
  Competitive with respect to Pi?: No
